Measured values from patent US11419876B2, “Mirtazapine as a pre-shipping inhibitor of bovine respiratory disease” (Iowa State University Research Foundation, Inc., priority 2019, dated 2022).

Tested on: BRD
Test: Pre-shipment mirtazapine treatment for BRD prevention at the feedlot
Type: in vivo, ranch heifer calves
Method: An initial study was performed to confirm BRD prevention at the feedlot using a pre-shipment treatment comprising mirtazapine. A total of 24 ranch heifer calves that were recently weaned (mixed breeds, approximately 350 lbs, 6 months old) were randomly assigned to two different treatment groups. One group was fed mirtazapine in a standard starter feed at 5 mg/kg/day as a pre-shipment treatment. The treatment dosage was extrapolated from feline dosing. After one week, calves were shipped from southern Missouri to Iowa. For the next […], calves were monitored for BRD which was ascribed to any animal showing respiratory signs (i.e. coughing, runny nose or eyes, labored or rapid breathing) plus a rectal temperature >104° F. BRD(+) calves were then treated with florfenicol+flunixin. Calves requiring a second treatment received ceftiofur plus tulathromycin, while the third treatment consisted of enrofloxacin, if needed. At the end of the study calves were sold as seedstock and were kept out of the food chain.
The efficacy of the mirtazapine as a pre-shipment treatment for preventing BRD was assessed by various clinical parameters, as shown in Table 1 and FIG. 1.
The % morbidity equals the % of calves that developed BRD in the first six weeks. The % mortality equals the percent of BRD(+) calves that died of the disease. The % retreats equals the % of BRD(+) calves that required >2 treatments for BRD once developed. The data are compared to Control calves that were not fed mirtazapine prior to shipping to a feedlot (“None”).

[1] = fed in starter feed at 5 mg/kg/day for one week pre-shipment, BRD(+) calves

CN1CCN2c3ncccc3Cc3ccccc3C2C1 (stereo not drawn) [Mirtazapine, 1,2,3,4,10,14b-hexahydro-2-methyl-pyrazino[2,1-a]pyrido[2,3-c] benzazepine]
% Morbidity (% of calves that developed BRD) (fed in starter feed at 5 mg/kg/day for one week pre-shipment, % of calves that developed BRD in the first six weeks): 42%
% Mortality (percent of BRD(+) calves that died of the disease) [1]: 0%
% Retreats (% of BRD(+) calves that required >2 treatments for BRD) [1]: 11%
Avg. days to onset BRD (fed in starter feed at 5 mg/kg/day for one week pre-shipment, after shipping to feedlot): 7.3 days
Avg. Rectal Temp at BRD (fed in starter feed at 5 mg/kg/day for one week pre-shipment, at clinical presentation with BRD): 104.2 degrees F.
Effect on morbidity, mortality and severity of BRD (in words) (fed to calves for one week prior to shipping, versus control calves not fed mirtazapine): reduces the morbidity, mortality, and severity
